From patent US12605358B2, “Composition for preventing or treating nervous system diseases comprising compound that inhibits mTOR signaling pathway as active ingredient” (ALIAD BIOPHARMA, priority 2021, dated 2026)

Experiments:
[1] = system: primary cultured cerebral neurons; assay: Neuron protective efficacy against Aβ toxicity (DAPI cell count); format: cell-based, rat; conditions: Aβ 0.5 or 1 μM, HN-1703 0.1 or 0.5 μM, 12 or 24 hours; Aβ alone reduced viability by 50% or more; FIGS. 5A, 5B
Experimental: Primary cultured neurons from the cerebral cortex of rat embryos (E16) were treated with […] or 1 μM Aβ and 0.1 μM or 0.5 μM HN-1703 for 12 or 24 hours. Cell viability was evaluated by measuring the number of cells stained with DAPI.
Aβ has strong toxicity to neurons, and the death of neurons caused by Aβ accumulated in the brain is a major cause of Alzheimer's disease. To evaluate whether HN-1703 for inhibiting the mTOR signaling pathway and promoting autophagy may directly protect neurons from Aβ toxicity, an inhibitory effect of HN-1703 on Aβ-induced apoptosis of primary cultured cerebral neurons was evaluated, and the number of live cells stained with DAPI was quantified and shown in FIGS. 5A and 5B.

[2] = system: 5xFAD transgenic mice; assay: Senile plaques removal, Thioflavin-S staining of brain slices; format: in vivo
Experimental: (§1) 5xFAD animals were administered with HN-1703 at three doses for 14 days to male heterozygotes aged 6 months (all born within 3 days). The behaviors of mice were measured in a dark cycle in which the mice were active while alternating light and dark in a 12-hour cycle in a breeding room chamber, and the mice were freely accessible to food and water and bred in compliance with experimental animal ethical guidelines of Kyung Hee University. In each group, the HN-1703 was intraperitoneally injected at the same time once a day in a volume of 100 μl to 12 mice in a normal group (wild type littermate), 9 5xFAD mice in a vehicle (DMSO administration), 8 5xFAD mice in a 5 mg/kg administered group, 9 5xFAD mice in a 10 mg/kg administered group, and 9 5xFAD mice in a 20 mg/kg administered group. […] In a behavioral measurement room, humidity (40 to 60%) and temperature (22 to 26° C.) were maintained, and reflected light was maintained to avoid sound and light effects. Behavioral measures were measured in Y-maze, Morris Water Maze, and Passive Avoidance test for 18 days in sequence.
(§2) A brain slice immunostaining method was modified and used as described in Heo H et al. (J Ethnopharmacol, 2009). Mice were transcardially perfused with 4% PFA. After being immersed and fixed in 4% PFA for 4 hours, the brain tissue was unfrozen in 30% sucrose, frozen in an optimal cutting temperature (OCT) mixture, and stored at −80° C. Brain tissue slices were sectioned in a coronal direction at a thickness of 35 μm. The brain tissue slices were immersed in a storage solution (30% glycerol, 30% ethylene glycol, PBS) and stored at 4° C. The stored brain slices were permeabilized in 0.5% Triton X-100 for 20 minutes and shaken in 2 N HCl for 30 minutes at 37° C. Then, the brain slices were blocked in a free-floating state for 2 hours in 15% standard serum, 3% bovine serum albumin (BSA, bio-WORLD, Dublin, OH, USA) and 0.1% Triton X-100. The slices were shaken with a first antibody for 16 hours at 4° C. Thereafter, a second antibody complementary to the first antibody was attached at room temperature (22±1° C.) for 45 minutes. Then, the nuclei were washed with physiological saline (PBS) containing 1 μg/ml PI (propidiumiodide, Sigma) or DAPI (1:4000), and then placed on a slide glass and sealed using an aqueous mount, and observed under a confocal scanning microscope for tissue observation (LSM 810 Carl Zeiss, Oberkochen, Germany).
Brain slices segmented in a coronal direction were selected from the front to the back of the brain by one slice every 5 slices, and 5 to 11 slices for each animal's brain were co-stained with thioflavin-S and DAPI.
FIG. 7 is confocal scanning micrographs of the hippocampal dentate gyrus, and the entorhinal cortex and temporal lobe of the cerebral cortex, after staining senile plaques by treating the brain slice with Thioflavin-S, and FIG. 8 illustrates quantifying the entire area and staining intensity of the senile plaques stained with Thioflavin-S.

[3] = system: 5xFAD transgenic mice; assay: NFT removal, AT8/MAP2 staining of brain slices; format: in vivo
Experimental: as §1
as §2, with “Thereafter, a second antibody complementary to the first antibody was attached at room temperature (22±1° C.) for 45 minutes. Then, the nuclei were washed with physiological saline (PBS) containing 1 μg/ml PI (propidiumiodide, Sigma) or DAPI (1:4000), and then placed on a slide glass and sealed using an aqueous mount, and observed under a confocal scanning microscope for tissue observation (LSM 810 Carl Zeiss, Oberkochen, Germany).” left out

[4] = system: 5xFAD transgenic mice; assay: Neurogenesis (Sox2/DCX/NeuN staining); format: in vivo; conditions: 10 to 20 mg/kg; compared to the WT normal group; FIG. 17
Experimental: 5xFAD animals were administered with HN-1703 at three doses for 14 days to male heterozygotes aged 6 months (all born within 3 days). The behaviors of mice were measured in a dark cycle in which the mice were active while alternating light and dark in a 12-hour cycle in a breeding room chamber, and the mice were freely accessible to food and water and bred in compliance with experimental animal ethical guidelines of Kyung Hee University. In each group, the HN-1703 was intraperitoneally injected at the same time once a day in a volume of 100 μl to 12 mice in a normal group (wild type littermate), 9 5xFAD mice in a vehicle (DMSO administration), 8 5xFAD mice in a 5 mg/kg administered group, 9 5xFAD mice in a 10 mg/kg administered group, and 9 5xFAD mice in a 20 mg/kg administered group. […] Behavioral measures were measured in Y-maze, Morris Water Maze, and Passive Avoidance test for 18 days in sequence. […]
FIG. 17 illustrates confocal scanning micrographs of a subgranular zone region of the hippocampal dentate gyrus after triple staining with an NeuN antibody as a neuron marker, an Sox2 antibody as a type1 neural progenitor cell marker, and a DCX antibody as a differentiating and migrating type3 neural precursor cell marker, and quantifying the number of Sox2+/NeuN+ cells and the number of DCX+/NeuN+ cells.

[5] = compared to the 5xFAD-DMSO control group, FIG. 8

`COc1cc(OC)c2c(=O)c3cc4c(cc3oc2c1)OCO4` [HN-1703, 7,9-dimethoxy-10H-[1,3]dioxolo[4,5-b]xanthen-10-one] was tested, and the “cell viability (number of live cells stained with DAPI) under Aβ toxicity” value [1] was “viability was significantly increased”, the “reduction of senile plaques compared to the 5xFAD-DMSO group” value ([2]; 20 mg/kg, dentate gyrus, FIG. 7) was at least 70% and the “senile plaques stained with Thioflavin-S” value ([2]; 5 to 20 mg/kg, hippocampal dentate gyrus, entorhinal cortex, temporal lobe, FIG. 7) was “reduced in a dose-dependent manner”. The “number of senile plaques having sizes of 10 to 20 μm and 20 μm or more” value ([2]; all brain regions tested, compared to the 5xFAD-DMSO control group, FIG. 8) was “decreased in a dose-dependent manner”, the “entire area of senile plaques” value [2, 5] was “decreased in a dose-dependent manner” and the “staining intensity of senile plaques” value [2, 5] was “decreased in a dose-dependent manner”. For the same compound, the “decrease of NFTs compared to the 5xFAD-DMSO group” value ([3]; 20 mg/kg, dentate gyrus, FIG. 9) was at least 70%, the “NFT (AT8 staining)” value ([3]; 5 to 20 mg/kg, all three brain regions examined, FIG. 9) was “decreased in a dose-dependent manner” and the “number of neurons stained with NFT (AT8+/MAP2+)” value ([3]; dentate gyrus, FIG. 10) was “decreased in a dose-dependent manner”. The “DCX+ neural progenitor cells” value [4] was “twice or more” and the “Sox2+ neural progenitor cells” value [4] was “more Sox2+ neural progenitor cells were observed”.
